Target: T1, VCAM-1 (Mus musculus, UniProt P29533)
T1 construct: from tissue; host or cells: liver of Balb/c mice in vivo, Con-A-induced hepatitis
T1 sequence (P29533 25-739): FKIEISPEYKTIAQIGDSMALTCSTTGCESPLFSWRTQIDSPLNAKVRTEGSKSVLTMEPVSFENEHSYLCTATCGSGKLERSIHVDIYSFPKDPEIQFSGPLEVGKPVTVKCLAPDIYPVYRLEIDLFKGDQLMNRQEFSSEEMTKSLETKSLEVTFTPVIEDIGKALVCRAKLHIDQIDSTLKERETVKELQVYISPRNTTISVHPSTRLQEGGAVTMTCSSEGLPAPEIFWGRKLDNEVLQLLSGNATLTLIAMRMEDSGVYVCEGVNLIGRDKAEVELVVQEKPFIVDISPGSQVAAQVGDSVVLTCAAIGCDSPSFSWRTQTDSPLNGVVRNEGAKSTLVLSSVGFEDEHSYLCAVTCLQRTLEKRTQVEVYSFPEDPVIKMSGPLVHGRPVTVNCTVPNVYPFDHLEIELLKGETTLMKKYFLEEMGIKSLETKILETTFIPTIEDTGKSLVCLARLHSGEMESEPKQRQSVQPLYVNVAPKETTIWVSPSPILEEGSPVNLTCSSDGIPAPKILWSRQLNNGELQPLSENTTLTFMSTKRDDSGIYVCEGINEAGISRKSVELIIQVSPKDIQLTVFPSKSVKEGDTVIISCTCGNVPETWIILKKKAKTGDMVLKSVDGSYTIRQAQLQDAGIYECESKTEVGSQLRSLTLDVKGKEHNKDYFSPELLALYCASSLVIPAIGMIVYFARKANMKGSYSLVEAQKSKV
Assay: MRI in vivo on a model of Con-A-induced hepatitis in mice
Conditions: 100 μmol Gd/kg i.v., FIG. 3
Method: Before the MRI acquisition, the mice are anesthetized with pentobarbital. All the experiments are carried out on a 200 MHz Bruker spectrometer (4.7 T) equipped with a vertical magnet and with a microimaging system.
The hepatitis is induced by i.v. injection of 20 mg/kg of Con-A in Balb/c mice weighing approximately 26 g. The literature reports that VCAM-1 is massively expressed in the liver between 4 and 8 hours after the injection of Con-A. The MRI protocol is the following: (1) the precontrast MRI begins 4h30 after the injection of Con-A; (2) the contrast product is injected at the dose of 100 μmol Gd/kg approximately 5 h after the injection of Con-A; (3) several post-contrast acquisitions are carried out for 1 h30 every 7 minutes. […]
For the two models, the SI values are measured in various regions of interest (at the level of the arterial wall of the abdominal aorta or whole liver) using the OSIRIS image analysis software. […] The SI value is measured on all the image slices where the arterial wall and the liver are visible. […] The increase in the signal/noise ratio (% ΔSNR) is calculated according to the following equation: % ΔSNR=[(SIpost/SDnoise)−(SIpre/SDnoise)]/[SIpre/SDnoise]×100 where SDnoise is the standard deviation of the noise measured on a region outside the animal.

For `O=C([O-])CN1CCN(CC(=O)[O-])CCN(CC(=O)O)CCN(CC(=O)[O-])CC1.[Gd+3]` [Gd-DOTA], the “change in signal/noise ratio (% ΔSNR) of the liver over time, hepatitis versus healthy mouse” value was “substantially identical”.
